One test concerns the target T1, B-RAF G466V (Homo sapiens, UniProt P15056, G466V).
T1 construct: expressed in transfected cells; host or cells: T-Rex 293 cells (Invitrogen #R71007)
Briefly: Target protein degradation, assay D: T-Rex 293 cells, HA-BRAF_G466V, 384 well format. The format is cell-based. The note with it: T-Rex 293 HA-BRAF_G466V cells, 24 hours, Examples 83-269; for DC50: Assay D; for Dmax: T-REx-293, Assay D. The method, then:
D. T-Rex 293 Cells (384 Well Format)
(§1) T-Rex 293 cells were purchased from Invitrogen (#R71007), and stably transfected with a pcDNA4/TO_HA-BRAF_G466V construct, using 400 ug Zeocin for selection. G466V cells are plated in DMEM media (Gibco #11965118) containing 10% FBS (Gibco #16000044), 1% penicillin-streptomycin (ThermoFisher #15140122), 1:250 zeocin (Invitrogen #R-25005), and 1 ng/mL doxycycline (Selleckchem #4163) at a density of 7,500 cells/well in 45 μl on PDL coated, black clear bottom 384 well plates (Corning #354663) and incubated at 37° C.+5% CO2 for 24 hours. The following day, PROTAC compounds in a 1:3 11 point dilution are diluted into DMEM media using an Agilent Bravo. 5 ul of PROTACs suspended in DMEM media are added to the cells, with a final assay concentration ranging from 300 nM to 5 pM in 0.5% DMSO. Plates are incubated at 37° C.+5% CO2 for 24 hours. At the end of treatment, media is aspirated, and cells are fixed in 50 uL 4% PFA (EMS #15710) in PBS++(PBS, 1 mM CaCl, 1 mM MgCl) at RT for 15 minutes. Cells are washed 2× with 60 uL PBS++ and permeabilized in 50 uL 1% Triton X-100 (Sigma #93443) in PBS++ for 5 minutes at RT. Cells are washed in PBS++ prior to blocking with 50 uL Licor blocking buffer (Licor #927-60001) for 1 hour at RT. HA-tagged BRAF was stained using 50 uL HA antibody (CST #3724) at 1:1000 in Licor blocking buffer for two hours at RT. Primary is aspirated before adding 50 ul of secondary antibody solution containing 1:1000 Hoechst (ThermoFisher #62249), 1:1000 HCS CellMask Deep Red Stain (ThermoFisher #H32721), and 1:5000 goat anti-rabbit IgG Alexa-Fluor 488 (ThermoFisher #A32731) in PBS++ for 1 hr at RT. Plates are washed 4× with 60 uL PBS++, then sealed with Adhesive Black Light Absorbing Film (VWR #89087-692) and imaged on the ThermoFisher CX7 PRO high content instrument. BRAF intensity is quantified in HCS Studio software (ThermoFisher), using a custom script, exported, analyzed using KNIME, and curve curation is performed in an ELN (Scilligence). Cell toxicity is measured via comparing number of nuclei in PROTAC treated wells to DMSO controls.
(§2) The concentration of an exemplary compound that leads to half maximal degradation (DC50) as well as the maximum degradation observed (Dmax, conventionally expressed as a percentage of control) is shown below in Table 2.

The target in the next test is T2, B-RAF V600E (Homo sapiens, UniProt P15056, V600E).
T2 construct: expressed in transfected cells; host or cells: T-Rex 293 cells (Invitrogen #R71007)
T2 sequence (P15056 whole entry V600E): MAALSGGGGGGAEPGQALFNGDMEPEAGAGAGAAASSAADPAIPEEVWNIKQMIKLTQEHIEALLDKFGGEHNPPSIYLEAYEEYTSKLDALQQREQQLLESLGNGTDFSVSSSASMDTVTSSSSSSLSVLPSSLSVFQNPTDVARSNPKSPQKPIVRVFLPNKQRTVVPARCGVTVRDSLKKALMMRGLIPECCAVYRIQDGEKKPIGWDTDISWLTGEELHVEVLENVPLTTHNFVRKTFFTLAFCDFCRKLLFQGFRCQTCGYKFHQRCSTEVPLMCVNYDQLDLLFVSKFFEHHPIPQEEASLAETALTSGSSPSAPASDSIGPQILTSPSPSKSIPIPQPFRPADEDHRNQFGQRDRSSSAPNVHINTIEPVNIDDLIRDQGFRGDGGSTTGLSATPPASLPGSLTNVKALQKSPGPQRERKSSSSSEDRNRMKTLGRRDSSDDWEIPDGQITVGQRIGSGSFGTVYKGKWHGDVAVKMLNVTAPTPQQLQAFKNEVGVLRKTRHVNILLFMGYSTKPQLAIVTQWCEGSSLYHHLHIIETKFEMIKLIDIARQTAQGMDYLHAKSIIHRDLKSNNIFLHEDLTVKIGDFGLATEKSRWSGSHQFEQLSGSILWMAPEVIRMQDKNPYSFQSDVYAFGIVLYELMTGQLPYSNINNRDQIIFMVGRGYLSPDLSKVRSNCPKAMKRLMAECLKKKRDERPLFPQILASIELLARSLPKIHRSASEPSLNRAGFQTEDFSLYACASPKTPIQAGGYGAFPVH
Briefly: Target protein degradation, assay C: T-Rex 293 cells, HA-BRAF_V600E, 384 well format. Type of test: cell-based. The note with it: T-Rex 293 HA-BRAF_V600E cells, 24 hours, Examples 83-269; for DC50: Assay C; for Dmax: T-REx-293, Assay C. The method, then:
C. T-Rex 293 Cells (384 Well Format)
as §1, with “pcDNA4/TO_HA-BRAF_V600E” for “pcDNA4/TO_HA-BRAF_G466V”, “V600E” for “G466V”
as §2

Some results are limits rather than exact numbers.

T1 sequence (P15056 whole entry G466V): as the sequence (P15056 whole entry V600E) above, with G466V, E600V counted along it

By DC50 is commonly meant the midpoint of the concentration-degradation curve. Read a high DC50 as degradation only at high concentration. One may read the Dmax as the greatest extent of degradation seen. A high value points to deep degradation. At B-RAF G466V, `N#Cc1c(NS(=O)(=O)N2CC[C@@H](F)C2)ccc(F)c1Oc1ccc2ncn(-c3ccc(N4CCC(CN5CC6(CCC(c7ccc8c(c7)CN(C7CCC(=O)NC7=O)C8=O)CC6)C5)C4)cc3)c(=O)c2c1` (single isomer, unassigned) [Example 260, (3R)-N-(2-cyano-3-{[3-(4-{3-[(7-{2-[(3R*)-2,6-dioxopiperidin-3-yl]-1-oxo-2,3-dihydro-1H-isoindol-5-yl}-2-azaspiro[3.5]nonan-2-yl)methyl]pyrrolidin-1-yl}phenyl)-4-oxo-3,4-dihydroquinazolin-6-yl]oxy}-4-fluorophenyl)-3-fluoropyrrolidine-1-sulfonamide] came in with a DC50 of 1 to 10 nM and a Dmax not below 70%. Besides, on B-RAF V600E, the DC50 was 50 to 500 nM and the greatest degradation seen (Dmax) lay in the range of 35 to 70%.

In the case of `N#Cc1c(NS(=O)(=O)N2CC[C@@H](F)C2)ccc(F)c1Oc1ccc2ncn(-c3ccc(N4CCC(CN5CC6(CCC(c7ccc8c(c7)CN(C7CCC(=O)NC7=O)C8=O)CC6)C5)C4)cc3)c(=O)c2c1` (single isomer, unassigned) [Example 261, (3R)-N-(2-cyano-3-{[3-(4-{3-[(7-{2-[(3R*)-2,6-dioxopiperidin-3-yl]-1-oxo-2,3-dihydro-1H-isoindol-5-yl}-2-azaspiro[3.5]nonan-2-yl)methyl]pyrrolidin-1-yl}phenyl)-4-oxo-3,4-dihydroquinazolin-6-yl]oxy}-4-fluorophenyl)-3-fluoropyrrolidine-1-sulfonamide], the DC50 on B-RAF G466V fell in the range of 1 to 10 nM; on B-RAF V600E, 50 to 500 nM.

On B-RAF G466V, `N#Cc1c(NS(=O)(=O)N2CC[C@@H](F)C2)ccc(F)c1Oc1ccc2ncn(-c3ccc(N4CCN(CC5CCN(c6ccc7c(c6)CN(C6CCC(=O)NC6=O)C7=O)CC5)CC4)cn3)c(=O)c2c1` (stereo partly drawn) [Example 83, (3R)-N-{2-cyano-3-[(3-{5-[4-({1-[2-(2,6-dioxopiperidin-3-yl)-1-oxo-2,3-dihydro-1H-isoindol-5-yl]piperidin-4-yl}methyl)piperazin-1-yl]pyridin-2-yl}-4-oxo-3,4-dihydroquinazolin-6-yl)oxy]-4-fluorophenyl}-3-fluoropyrrolidine-1-sulfonamide] showed a half-maximal degradation concentration (DC50) not above 1 nM and a Dmax not above 35%. At B-RAF V600E, this compound gave a 50% degradation concentration (DC50) of 50 to 500 nM and a Dmax of 35 to 70%.

As to `C[C@H]1CN(CC2CCN(c3ccc4c(c3)CN([C@H]3CCC(=O)NC3=O)C4=O)CC2)CCN1c1ccc(-n2cnc3ccc(Oc4c(F)ccc(NS(=O)(=O)N5CC[C@@H](F)C5)c4C#N)cc3c2=O)cc1` [Example 84, (3R)-N-{2-cyano-3-[(3-(4-[(2S)-4-[(1-{2-[(3S)-2,6-dioxopiperidin-3-yl]-1-oxo-2,3-dihydro-1H-isoindol-5-yl}piperidin-4-yl)methyl]-2-methylpiperazin-1-yl]phenyl}-4-oxo-3,4-dihydroquinazolin-6-yl)oxy]-4-fluorophenyl}-3-fluoropyrrolidine-1-sulfonamide], on B-RAF G466V, the DC50 was not above 1 nM and the greatest degradation seen (Dmax) fell in the range of 35 to 70%. On B-RAF V600E, this compound yielded a DC50 of 5 to 50 nM and a Dmax of 35 to 70%.

Consider `N#Cc1c(NS(=O)(=O)N2CC[C@@H](F)C2)ccc(F)c1Oc1ccc2ncn(-c3ccc(N4CCC(CN5CC6(C5)CN(c5ccc7c(c5)CN(C5CCC(=O)NC5=O)C7=O)C6)CC4)cc3)c(=O)c2c1` (stereo partly drawn) [Example 85, (3R)-N-{2-cyano-3-[(3-{4-[4-({6-[2-(2,6-dioxopiperidin-3-yl)-1-oxo-2,3-dihydro-1H-isoindol-5-yl]-2,6-diazaspiro[3.3]heptan-2-yl}methyl)piperidin-1-yl]phenyl}-4-oxo-3,4-dihydroquinazolin-6-yl)oxy]-4-fluorophenyl}-3-fluoropyrrolidine-1-sulfonamide], for which, on B-RAF G466V, the DC50 was 1 to 10 nM and the Dmax fell in the range of 35 to 70%. At B-RAF V600E, this compound had a DC50 of 5 to 50 nM and a Dmax of 35 to 70%.

For the compound `N#Cc1c(NS(=O)(=O)N2CC[C@@H](F)C2)ccc(F)c1Oc1ccc2ncn(-c3ccc(N4CCN(CC5CCN(c6ccc7c(c6)CN(C6CCC(=O)NC6=O)C7=O)CC5)CC4)c(F)c3)c(=O)c2c1` (stereo partly drawn) [Example 86, (3R)-N-{2-cyano-3-[(3-(4-[4-({1-[2-(2,6-dioxopiperidin-3-yl)-1-oxo-2,3-dihydro-1H-isoindol-5-yl]piperidin-4-yl}methyl)piperazin-1-yl]-3-fluorophenyl}-4-oxo-3,4-dihydroquinazolin-6-yl)oxy]-4-fluorophenyl}-3-fluoropyrrolidine-1-sulfonamide], at B-RAF G466V, the DC50 was not above 1 nM and the Dmax was not above 35%. Moreover, at B-RAF V600E, the half-maximal degradation concentration (DC50) fell in the range of 5 to 50 nM and the Dmax is 35 to 70%.

As to `N#Cc1c(NS(=O)(=O)N2CC[C@@H](F)C2)ccc(F)c1Oc1ccc2ncn(-c3ccc(N4CCN(CC5CCN(c6ccc7c(c6)CN(C6CCC(=O)NC6=O)C7=O)CC5)CC4)cc3F)c(=O)c2c1` (stereo partly drawn) [Example 87, (3R)-N-{2-cyano-3-[(3-{4-[4-({1-[2-(2,6-dioxopiperidin-3-yl)-1-oxo-2,3-dihydro-1H-isoindol-5-yl]piperidin-4-yl}methyl)piperazin-1-yl]-2-fluorophenyl}-4-oxo-3,4-dihydroquinazolin-6-yl)oxy]-4-fluorophenyl}-3-fluoropyrrolidine-1-sulfonamide], the DC50 on B-RAF G466V was more than 30 nM; at B-RAF V600E, more than 500 nM.

Turning to `COc1cc(-n2cnc3ccc(Oc4c(F)ccc(NS(=O)(=O)N5CC[C@@H](F)C5)c4C#N)cc3c2=O)ccc1N1CCN(CC2CCN(c3ccc4c(c3)CN(C3CCC(=O)NC3=O)C4=O)CC2)CC1` (stereo partly drawn) [Example 88, (3R)-N-{2-cyano-3-[(3-{4-[4-({1-[2-(2,6-dioxopiperidin-3-yl)-1-oxo-2,3-dihydro-1H-isoindol-5-yl]piperidin-4-yl}methyl)piperazin-1-yl]-3-methoxyphenyl}-4-oxo-3,4-dihydroquinazolin-6-yl)oxy]-4-fluorophenyl}-3-fluoropyrrolidine-1-sulfonamide], on B-RAF G466V, the 50% degradation concentration (DC50) was not above 1 nM and the Dmax fell in the range of 35 to 70%. Moreover, on B-RAF V600E, the 50% degradation concentration (DC50) lay in the range of 5 to 50 nM and the maximal degradation (Dmax) was not above 35%.

For the origin of these results see patent publication US11957759B1, “Rapidly accelerated fibrosarcoma (RAF) degrading compounds and associated methods of use” (Arvinas Operations, Inc., priority 2022, dated 2024).
